The source of these data is ChEMBL document CHEMBL2057118, “Synthesis and biological evaluation of novel 2,4,6-triazine derivatives as antimicrobial agents” (2012).

Holding throughout (format): functional
One experiment relates to Bacillus subtilis. Description: Antimicrobial activity against Bacillus subtilis MTCC 441 after 24 hrs by agar well diffusion method. The following applies: for MIC: Bacillus subtilis, MTCC 441, 24 h.
The next experiment concerns Staphylococcus aureus. Description: Antimicrobial activity against Staphylococcus aureus MTCC 96 after 24 hrs by agar well diffusion method. The following applies: for MIC: Staphylococcus aureus, MTCC 96, 24 h.
A further experiment relates to Escherichia coli. Description: Antimicrobial activity against Escherichia coli MTCC 1650 after 24 hrs by agar well diffusion method. The settings on record: for MIC: Escherichia coli, MTCC 1650, 24 h.
For a further experiment, the system named is Pseudomonas aeruginosa. Description: Antimicrobial activity against Pseudomonas aeruginosa MTCC 1688 after 24 hrs by agar well diffusion method. The following applies: for MIC: Pseudomonas aeruginosa, MTCC 1688, 24 h.
For a further experiment, the system named is Aspergillus niger. Nature of the experiment: Antifungal activity against Aspergillus niger MTCC 1781 after 2 to 3 days by agar well diffusion method. The following applies: for MIC: Aspergillus niger, MTCC 1781.
Another experiment concerns Candida albicans. Description: Antifungal activity against Candida albicans MTCC 227 after 2 to 3 days by agar well diffusion method. The following applies: for MIC: Candida albicans, MTCC 227.

Molecules are shown by their SMILES.

On to `Cl.N#Cc1ccc(Nc2nc(N3CCCCC3)nc(N3CCCCC3)n2)cn1`, for which the “inhibition zone (IZ)” value in the experiment on Bacillus subtilis came to 10 mm; with Staphylococcus aureus it was 12 mm; in the experiment on Escherichia coli it was 14 mm; in the experiment on Pseudomonas aeruginosa it was 12 mm; in the experiment with Aspergillus niger, 14 mm; in the experiment on Candida albicans, 10 mm. The MIC in the experiment with Bacillus subtilis was determined as 50 mg/L; with Staphylococcus aureus, 50 mg/L; in the experiment on Escherichia coli it was 25 mg/L; in the experiment with Pseudomonas aeruginosa, 25 mg/L; in the experiment with Aspergillus niger it was 25 mg/L; in the experiment with Candida albicans, 50 mg/L.
Regarding `Cl.N#Cc1ccc(Nc2nc(NCCN3CCOCC3)nc(NCCN3CCOCC3)n2)cn1`, the “inhibition zone (IZ)” value in the experiment with Bacillus subtilis stood at 10 mm; in the experiment with Staphylococcus aureus it was 12 mm; in the experiment on Escherichia coli it was 14 mm; with Pseudomonas aeruginosa it was 12 mm; with Aspergillus niger it was 14 mm; in the experiment on Candida albicans, 12 mm. Moreover, the MIC is 25 mg/L against Bacillus subtilis; 50 mg/L with Staphylococcus aureus; 25 mg/L against Escherichia coli; 25 mg/L against Pseudomonas aeruginosa; 50 mg/L against Aspergillus niger; 25 mg/L in the experiment with Candida albicans.
On to `Cl.N#Cc1ccc(Nc2nc(N3CCCC3)nc(N3CCCC3)n2)cn1`, for which the “inhibition zone (IZ)” value in the experiment with Bacillus subtilis amounted to 12 mm; with Staphylococcus aureus it was 12 mm; with Escherichia coli it was 12 mm; in the experiment on Pseudomonas aeruginosa it was 12 mm; in the experiment on Aspergillus niger, 14 mm; in the experiment on Candida albicans, 12 mm. In addition, the minimum inhibitory concentration (MIC) against Bacillus subtilis was found to be 100 mg/L; in the experiment with Staphylococcus aureus, 100 mg/L; against Escherichia coli, 50 mg/L; against Pseudomonas aeruginosa it was 100 mg/L; in the experiment with Aspergillus niger it was 50 mg/L; in the experiment on Candida albicans it was 50 mg/L.
